These results are taken from patent US8642593B2, “2,4-pyrimidinediamine compounds and prodrugs and their uses” (Rigel Pharmaceuticals, Inc., priority 2009, dated 2014).

For test [1], the target named is T1, Syk kinase (Homo sapiens, UniProt P43405).
T1 construct: purchased Millipore #14-314
The test is described as follows: Fluorescence Polarization Syk kinase assay. The following applies: for IC50: Table 2, unit inferred, read-out: FP-based Biochem Syk; for potency compared with the control, biochemical assay: vs control compound. Type of test: biochemical. The method, then: Compounds are tested for the ability to inhibit Syk kinase catalyzed phosphorylation of a peptide substrate in a biochemical fluorescence polarization assay with isolated Syk kinase.
Test compound stock solutions (10 mM) containing are serially diluted in DMSO starting from 2.5 mM and then further diluted to desired concentration of 50 μM (5×) to yield 2% DMSO concentration in kinase buffer (20 mM HEPES, pH 7.4, 5 mM MgCl2, 2 mM MnCl2, 1 mM DTT, 0.1 mg/mL acetylated Bovine Gamma Globulin). The assay is carried out in a black 96 well low volume plate (Molecular Devices, #42-000-0117) by transferring compound in 2% DMSO (0.4% DMSO final) pre-mixed with ATP/substrate (TK2 peptide) in kinase buffer at room temperature. Syk kinase (Millipore, #14-314) is added to a final reaction volume of 20 μL, and the reaction is incubated for 30 minutes at room temperature. […] The reaction is stopped by addition of 20 μL of PTK quench mix containing EDTA (10 mM final)/anti-phosphotyrosine antibody (1× final)/fluorescent phosphopeptide tracer (0.5× final) diluted in FP dilution buffer to stop the reaction to a total volume of 40 μL according to the manufacturer's instructions (Invitrogen). The plate is incubated in the dark for additional 30 minutes at room temperature and then read on a Polarion fluorescence polarization plate reader (Tecan). Data are converted to amount of phosphopeptide present using a calibration curve generated by competition with the phosphopeptide competitor provided in the Tyrosine Kinase Assay Kit, Green (Invitrogen, #P2837).
For orientation: Polarisation of emitted light reports the rotation of a fluorescent probe.

The test system of test [2] is allergen induced basophil degranulation. The test is described as follows: CD63 Assay (BASOTEST, FACS, whole blood, anti-IgE). Type of test: cell-based. To be noted: for potency compared with the control in the presence of whole blood (CD63 assay): vs control compound; for IC50: whole blood, anti-IgE, Table 2, unit inferred. The method, then: Compounds are tested for the ability to inhibit allergen induced basophil degranulation. The BASOTEST® kit (Orpegen Pharma GmbH, #10-0500) is used in this assay. In a 5 mL FACS tube 105 μL of Heparinized whole blood, 25 μL of test compound solution (in DMSO) are incubated at room temperature for 30-60 minutes. To induce degranulation, 20 μL stimulation buffer (Reagent B) is added, and the tube is incubated for 10 min in a 37° C. water bath. Then, 100 μL of anti-IgE (2 μg/mL) is added, or 100 µL of washing solution (reagent A) is added (i.e., as a negative control). The tube is incubated for 20 min in a 37° C. water bath. Degranulation is then stopped by incubation on ice for 5 min. 20 μL of staining reagent (reagent F) is added, and the tube is incubated on ice in the dark for 20 min. 2 mL of room temperature lysing solution is added, and the tube is incubated at room temperature for 10 min. The tubes are spun down at 4° C. for 5 min at 1600 rpm, and the supernatant is discarded. 3 mL washing solution (reagent A) is added, and the tubes spun down at 4° C. for 5 min at 1600 rpm, and the supernatant is discarded. 200 μL washing solution is added to the remaining cell pellet, and the samples are incubated on ice in the dark until analysis (within 2 h). Analysis is performed using flow cytometry at 488 nm using the conditions specified in the BASOTEST® kit instructions to determine percentage of activated basophilic granulocytes.

Test [3] deals with T2, Ret kinase in SK-N-SH brain neuroblastoma cells (Homo sapiens, UniProt P07949).
T2 construct: Ret is immunoprecipitated from the detergent-soluble cell lysate; host or cells: SK-N-SH brain neuroblastoma cells
T2 sequence (P07949 29-1114): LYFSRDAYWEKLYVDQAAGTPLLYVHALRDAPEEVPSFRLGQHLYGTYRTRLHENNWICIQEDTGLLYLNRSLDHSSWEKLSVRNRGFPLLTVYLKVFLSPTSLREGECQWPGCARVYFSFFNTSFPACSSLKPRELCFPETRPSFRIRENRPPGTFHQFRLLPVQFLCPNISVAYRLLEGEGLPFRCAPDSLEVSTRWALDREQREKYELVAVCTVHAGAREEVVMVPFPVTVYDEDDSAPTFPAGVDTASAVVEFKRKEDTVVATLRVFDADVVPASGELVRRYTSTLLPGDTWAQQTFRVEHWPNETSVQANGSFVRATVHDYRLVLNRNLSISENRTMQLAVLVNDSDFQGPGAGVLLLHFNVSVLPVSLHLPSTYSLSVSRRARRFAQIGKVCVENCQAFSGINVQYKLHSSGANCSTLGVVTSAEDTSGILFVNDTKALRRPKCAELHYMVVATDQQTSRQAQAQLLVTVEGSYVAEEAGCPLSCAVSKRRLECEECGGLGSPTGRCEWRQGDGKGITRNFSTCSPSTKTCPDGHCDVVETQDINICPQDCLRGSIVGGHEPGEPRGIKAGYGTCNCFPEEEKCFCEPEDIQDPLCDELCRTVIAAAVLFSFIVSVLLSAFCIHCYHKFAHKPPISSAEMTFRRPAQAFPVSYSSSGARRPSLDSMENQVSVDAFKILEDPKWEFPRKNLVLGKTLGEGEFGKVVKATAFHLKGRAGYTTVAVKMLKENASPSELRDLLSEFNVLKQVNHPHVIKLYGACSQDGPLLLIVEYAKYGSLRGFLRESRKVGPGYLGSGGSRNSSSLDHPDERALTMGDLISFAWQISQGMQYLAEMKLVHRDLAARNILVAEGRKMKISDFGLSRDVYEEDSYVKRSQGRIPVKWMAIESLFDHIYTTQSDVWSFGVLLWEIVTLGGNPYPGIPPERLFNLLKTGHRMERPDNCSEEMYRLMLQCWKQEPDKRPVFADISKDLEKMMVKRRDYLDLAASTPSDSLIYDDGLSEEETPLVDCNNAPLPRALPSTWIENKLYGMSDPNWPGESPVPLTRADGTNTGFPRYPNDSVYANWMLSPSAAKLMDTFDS
The test can be described thus: Cellular Ret Assay. Type of test: cell-based. To be noted: GDNF, Table 2, unit inferred.
Protocol: Compounds are tested for the ability to inhibit Ret kinase in cells. SK-N-SH brain neuroblastoma cells (ATCC, #HTB-1, maintained and plated in DMEM (Cellgro Mediatech, #10-013-CV) with 10% fetal bovine serum (JRH, #12106-500M) are seeded in 10 cm plates in 10 mL of culture media and allowed to reach 85% confluence by the next day. The medium is replaced with 5 mL of DMEM (without fetal bovine serum) containing DMSO or test compound (final 0.1% DMSO), and incubated at 37° C./5% CO2 for 1 hour. SK-N-SH cells are then stimulated with 50 ng/mL of human recombinant GDNF (Peprotech, #450-10) for 10 minutes. Cells are washed once with cold 1×PBS and lysed with 500 μL of 1% NP-40 lysis buffer (Tris HCl pH 7.4 with 150 mM NaCl, 1 mM NaVn, 1% Nonidet-P40 (Fisher Scientific, #PI-28324), protease inhibitor tablet (Roche, 1697498)). […]
After washing with 1×TBST for 2 hours with five buffer changes, the membrane is probed with Goat anti-Mouse IgG HRP antibody (Jackson Immunoresearch Labs, #115-035-146, 1:2000) in 1×TBST+5% milk for 1 hour at room temperature. The membrane is washed with TBST for 2 hours with five buffer changes, treated with ECL plus Western Blot detection reagent (GE Healthcare, formerly Amersham, #RPN2132) according to the instruction manual, and the chemiluminescent signal is detected on Kodak Biomax MR Film (VWR, # IB8701302).

The target in test [4] is T3, Ret kinase (Homo sapiens, UniProt P07949).
T3 construct: purchased Millipore #14-570
T3 sequence (P07949 658-1114 limits assumed): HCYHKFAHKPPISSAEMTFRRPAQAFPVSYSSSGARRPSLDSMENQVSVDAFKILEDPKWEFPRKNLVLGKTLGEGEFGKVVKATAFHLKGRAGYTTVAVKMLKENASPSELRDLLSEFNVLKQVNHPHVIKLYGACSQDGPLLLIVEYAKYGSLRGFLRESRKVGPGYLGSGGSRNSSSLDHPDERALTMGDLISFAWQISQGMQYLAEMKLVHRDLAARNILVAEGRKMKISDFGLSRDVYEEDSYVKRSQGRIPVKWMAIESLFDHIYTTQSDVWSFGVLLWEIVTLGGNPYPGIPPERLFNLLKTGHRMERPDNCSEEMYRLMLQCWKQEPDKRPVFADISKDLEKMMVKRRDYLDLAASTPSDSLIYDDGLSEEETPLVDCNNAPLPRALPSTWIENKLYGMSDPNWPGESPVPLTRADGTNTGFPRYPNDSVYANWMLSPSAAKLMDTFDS
The test is described as follows: Biochemical Ret Assay (ELISA-based). The following applies: for IC50: Table 2, unit inferred, read-out: Biochem Ret; for selectivity over Ret kinase compared with the control: vs control compound. The method, then: Compounds are tested for the ability to inhibit Ret kinase in an ELISA-based assay. The assay is carried out in a Costar white 96 well plate (Fisher Scientific, #07-200-591) coated overnight with 0.01 mg/mL NeutrAvidin (Pierce, 100 μL/well) at 4° C. The pre-coated 96 well plate is blocked with 2% BSA in PBST buffer for at least 1 h at room temperature before starting the assay. Serially diluted test compound stock solution is prepared separately in DMSO solution starting from 300 μM, and 2 μL/well of this diluted compound (3% DMSO final concentration) is added directly to the NeutrAvidin coated assay plate containing 55.5 μL/well of kinase reaction buffer (20 mM HEPES, pH 7.4, 5 mM MgCl2, 1 mM DTT, 0.01% Brij-35) pre-mixed with ATP and kinase substrate (TK2 peptide). Reaction is initiated by adding 2.5 μL/well Ret kinase (Millipore, #14-570) resulting in a final reaction volume of […]. The reaction is allowed to continue for 30 minutes at room temperature. […] After completing the reaction, the wells are washed three times with PBST and incubated for 1 h at room temperature with 100 μL/well of phosphopeptide detection antibody solution (mixture of 1:10000 diluted mouse anti-pTyr monoclonal antibody (Cell Signal Technology, #9411) and 1:10000 diluted goat HRP-conjugated anti-mouse IgG (Jackson Immunoresearch, #115-035-003)). The plate is washed three times with PBST, developed with supersignal ELISA pico chemiluminescent substrate (Pierce), and read on a SpectraMax M5 microplate reader (Molecular Devices).
For orientation: In an ELISA, binding on a coated surface is turned into a signal by an enzyme label.

SMILES strings stand for the structures.

On to `CC1(C)Oc2ccc(Nc3nc(Nc4ccc(N5CCOCC5)nc4)ncc3F)nc2NC1=O` [Compound 1, N4-(2,2-Dimethyl-3-oxo-4H-5-pyrido[1,4]oxazin-6-yl)-5-fluoro-N2-[6-morpholinopyridin-3-yl]-2,4-pyrimidinediamine], for which, in test [1], the IC50 amounted to 40 nM and the “potency compared with the control, biochemical assay” value is reported as “somewhat less potent than the control”. For the same compound, in test [2], the “potency compared with the control in the presence of whole blood (CD63 assay)” value is recorded as “more potent” and the IC50 was 250 nM. For the same compound, in test [3], the IC50 is more than 5000 nM. Besides, in test [4], the IC50 came to 48 nM and the “selectivity over Ret kinase compared with the control” value is on record as “significantly more selective”.
In the case of `CC1(C)Oc2ccc(Nc3nc(Nc4ccc(N5CCOCC5)cc4)ncc3F)nc2NC1=O` [Compound 3, N4-(2,2-Dimethyl-3-oxo-4H-5-pyrido[1,4]oxazin-6-yl)-5-fluoro-N2-(4-morpholinophenyl)-2,4-pyrimidinediamine], in test [1], the IC50 was 80 nM and the “potency compared with the control, biochemical assay” value is on record as “somewhat less potent than the control”. In addition, in test [2], the “potency compared with the control in the presence of whole blood (CD63 assay)” value is reported as “more potent” and the IC50 was 300 nM. This compound gave an IC50 in test [3] of more than 1000 nM. Besides, in test [4], the IC50 turned out to be 6 nM and the “selectivity over Ret kinase compared with the control” value is given as “significantly more selective”.
